Results published in patent US20100286038A1, “FORMULATION CONTAINING CYCLIN-DEPENDENT KINASE INHIBITING COMPOUND AND METHOD OF TREATING TUMORS USING THE SAME” (priority 2007, published 2010).
Read-outs that look alike come from different tables or passages of the source.

Experiments:
[1] = system: A2780 ovarian carcinoma xenografts; test: A2780 xenograft ovarian cancer model; type: in vivo, nude mice
A549 NSCLC xenografts = settings: mouse, in vivo
H82 (SCLC) = test: xenograft tumor model; settings: mouse, in vivo
PKCβII = target: T1, PKCβII (Homo sapiens, UniProt P05771); test: Upstate kinase Profiler counter-screening; type: biochemical
T1 construct: purchased Upstate

AMPK = test: Upstate kinase Profiler counter-screening; type: biochemical
PKCε = target: T2, PKCε (Homo sapiens, UniProt Q02156); test: Upstate kinase Profiler counter-screening; type: biochemical
T2 construct: purchased Upstate
T2 sequence (Q02156 1-737): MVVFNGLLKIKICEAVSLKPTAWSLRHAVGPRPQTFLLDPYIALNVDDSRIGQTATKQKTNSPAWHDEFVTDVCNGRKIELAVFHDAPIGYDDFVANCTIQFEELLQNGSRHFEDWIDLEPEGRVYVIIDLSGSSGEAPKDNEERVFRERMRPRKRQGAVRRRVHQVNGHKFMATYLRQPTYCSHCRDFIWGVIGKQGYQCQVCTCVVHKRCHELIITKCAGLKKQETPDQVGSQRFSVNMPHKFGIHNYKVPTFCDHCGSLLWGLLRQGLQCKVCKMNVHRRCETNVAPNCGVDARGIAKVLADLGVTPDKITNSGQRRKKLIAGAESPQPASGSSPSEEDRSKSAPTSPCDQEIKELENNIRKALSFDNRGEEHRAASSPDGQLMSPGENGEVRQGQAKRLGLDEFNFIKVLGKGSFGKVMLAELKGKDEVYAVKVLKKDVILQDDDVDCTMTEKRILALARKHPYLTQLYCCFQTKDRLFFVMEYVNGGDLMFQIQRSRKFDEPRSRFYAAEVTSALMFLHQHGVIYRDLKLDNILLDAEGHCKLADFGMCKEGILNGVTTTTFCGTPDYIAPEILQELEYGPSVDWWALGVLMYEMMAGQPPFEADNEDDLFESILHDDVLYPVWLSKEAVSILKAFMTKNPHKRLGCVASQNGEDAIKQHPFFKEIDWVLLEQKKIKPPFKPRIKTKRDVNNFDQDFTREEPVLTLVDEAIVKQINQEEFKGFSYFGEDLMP

PKCθ = target: T3, PKCθ (Homo sapiens, UniProt Q04759); test: Upstate kinase Profiler counter-screening; type: biochemical
T3 construct: purchased Upstate

CDK7/cyclinH/MAT1 = target: T4, CDK7/cyclinH/MAT1 (Homo sapiens, UniProt P50613); test: Upstate kinase Profiler counter-screening; type: biochemical
T4 construct: purchased Upstate

cSRC = target: T5, cSRC (Homo sapiens, UniProt P12931); test: Upstate kinase Profiler counter-screening; type: biochemical
T5 construct: purchased Upstate

A2780 cells [2] = test: in-cell inhibition of thymidine incorporation; type: cell-based; settings: Homo sapiens
MSK1 = target: T6, MSK1 (Homo sapiens, UniProt O75582); test: Upstate kinase Profiler counter-screening; type: biochemical
T6 construct: purchased Upstate

CaMKII = type: biochemical
in vivo = settings: nude, mouse, ip
YES = target: T7, YES (Homo sapiens, UniProt P07947); test: Upstate kinase Profiler counter-screening; type: biochemical
T7 construct: purchased Upstate

Fes = target: T8, Fes (Homo sapiens, UniProt P07332); test: Upstate kinase Profiler counter-screening; type: biochemical
T8 construct: purchased Upstate

CDK6/cyclinD3 = target: T9, CDK6/cyclinD3 (Homo sapiens, UniProt Q00534); test: Upstate kinase Profiler counter-screening; type: biochemical
T9 construct: purchased Upstate

Lyn = target: T10, Lyn (Homo sapiens, UniProt P07948); test: Upstate kinase Profiler counter-screening; type: biochemical
T10 construct: purchased Upstate

Rsk2 = target: T11, Rsk2 (Homo sapiens, UniProt P51812); test: Upstate kinase Profiler counter-screening; type: biochemical
T11 construct: purchased Upstate

PKCα = target: T12, PKCα (Homo sapiens, UniProt P17252); test: Upstate kinase Profiler counter-screening; type: biochemical
T12 construct: purchased Upstate

A2780 cells [3] = settings: 16 hours exposure
Excerpt: Accumulation of the p85 PARP product was also monitored to assess activation of caspases and correlate inhibition of CDKs with the onset of apoptosis.

T5 sequence (P12931 whole entry, species assumed): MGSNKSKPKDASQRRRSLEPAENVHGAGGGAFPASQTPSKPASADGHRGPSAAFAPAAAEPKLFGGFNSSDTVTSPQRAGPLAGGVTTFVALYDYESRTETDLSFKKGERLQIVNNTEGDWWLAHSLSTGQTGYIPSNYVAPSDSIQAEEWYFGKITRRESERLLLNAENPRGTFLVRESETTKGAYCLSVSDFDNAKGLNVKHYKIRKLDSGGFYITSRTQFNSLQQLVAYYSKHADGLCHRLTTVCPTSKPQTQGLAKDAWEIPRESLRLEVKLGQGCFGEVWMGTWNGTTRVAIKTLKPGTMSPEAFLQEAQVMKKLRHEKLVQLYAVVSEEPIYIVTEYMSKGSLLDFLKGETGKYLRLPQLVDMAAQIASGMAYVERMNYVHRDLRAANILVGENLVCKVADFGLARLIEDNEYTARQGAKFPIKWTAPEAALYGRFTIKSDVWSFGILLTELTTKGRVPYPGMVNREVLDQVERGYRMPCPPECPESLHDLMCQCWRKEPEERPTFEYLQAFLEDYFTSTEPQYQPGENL
T3 sequence (Q04759 whole entry): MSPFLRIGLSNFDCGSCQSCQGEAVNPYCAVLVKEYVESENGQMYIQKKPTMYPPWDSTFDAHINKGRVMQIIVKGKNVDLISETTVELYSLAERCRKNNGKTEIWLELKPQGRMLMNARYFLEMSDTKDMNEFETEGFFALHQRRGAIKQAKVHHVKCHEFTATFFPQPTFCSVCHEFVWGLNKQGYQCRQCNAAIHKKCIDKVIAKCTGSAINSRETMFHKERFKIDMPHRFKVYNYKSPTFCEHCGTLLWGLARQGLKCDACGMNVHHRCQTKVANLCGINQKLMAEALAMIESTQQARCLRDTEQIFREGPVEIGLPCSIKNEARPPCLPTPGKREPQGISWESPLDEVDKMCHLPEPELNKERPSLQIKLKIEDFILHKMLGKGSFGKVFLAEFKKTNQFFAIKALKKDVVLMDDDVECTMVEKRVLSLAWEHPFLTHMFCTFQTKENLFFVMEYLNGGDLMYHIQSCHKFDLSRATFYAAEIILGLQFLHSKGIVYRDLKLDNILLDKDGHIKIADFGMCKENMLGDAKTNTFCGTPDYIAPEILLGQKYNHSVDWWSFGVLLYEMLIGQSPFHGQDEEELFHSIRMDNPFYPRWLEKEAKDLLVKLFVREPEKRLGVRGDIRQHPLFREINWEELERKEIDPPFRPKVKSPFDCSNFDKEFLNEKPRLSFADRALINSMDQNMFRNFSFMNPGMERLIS
T11 sequence (P51812 whole entry, species assumed): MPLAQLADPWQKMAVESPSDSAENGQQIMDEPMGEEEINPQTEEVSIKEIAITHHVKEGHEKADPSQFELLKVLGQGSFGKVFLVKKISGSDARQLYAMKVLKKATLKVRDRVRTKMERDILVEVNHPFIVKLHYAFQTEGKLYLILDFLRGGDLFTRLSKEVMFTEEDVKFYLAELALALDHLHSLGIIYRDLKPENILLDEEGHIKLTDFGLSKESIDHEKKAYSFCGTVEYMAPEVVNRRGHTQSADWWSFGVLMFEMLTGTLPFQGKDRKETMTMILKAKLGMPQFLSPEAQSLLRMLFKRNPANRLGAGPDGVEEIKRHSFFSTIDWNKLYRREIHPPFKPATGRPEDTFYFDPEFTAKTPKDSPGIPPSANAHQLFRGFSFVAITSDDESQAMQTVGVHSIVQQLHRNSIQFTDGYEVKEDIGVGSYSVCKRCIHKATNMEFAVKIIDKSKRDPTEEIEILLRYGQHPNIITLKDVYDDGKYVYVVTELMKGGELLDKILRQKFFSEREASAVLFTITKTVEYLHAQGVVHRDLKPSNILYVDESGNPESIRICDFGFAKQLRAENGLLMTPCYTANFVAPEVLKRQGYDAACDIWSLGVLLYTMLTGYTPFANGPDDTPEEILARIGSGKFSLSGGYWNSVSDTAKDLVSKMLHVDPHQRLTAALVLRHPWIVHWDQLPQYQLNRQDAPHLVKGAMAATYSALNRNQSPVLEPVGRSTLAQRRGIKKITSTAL
T9 sequence (Q00534 whole entry, species assumed): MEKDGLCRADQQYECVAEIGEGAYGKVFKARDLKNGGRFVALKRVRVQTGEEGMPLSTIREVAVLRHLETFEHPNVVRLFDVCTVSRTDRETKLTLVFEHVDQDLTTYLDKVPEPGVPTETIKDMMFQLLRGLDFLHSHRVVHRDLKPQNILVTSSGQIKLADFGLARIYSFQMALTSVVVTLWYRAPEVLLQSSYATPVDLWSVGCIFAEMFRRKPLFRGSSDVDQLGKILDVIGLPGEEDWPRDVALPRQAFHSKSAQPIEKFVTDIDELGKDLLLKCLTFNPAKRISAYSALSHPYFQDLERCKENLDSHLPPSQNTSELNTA
T9 sequence (P30281 whole entry partner, species assumed): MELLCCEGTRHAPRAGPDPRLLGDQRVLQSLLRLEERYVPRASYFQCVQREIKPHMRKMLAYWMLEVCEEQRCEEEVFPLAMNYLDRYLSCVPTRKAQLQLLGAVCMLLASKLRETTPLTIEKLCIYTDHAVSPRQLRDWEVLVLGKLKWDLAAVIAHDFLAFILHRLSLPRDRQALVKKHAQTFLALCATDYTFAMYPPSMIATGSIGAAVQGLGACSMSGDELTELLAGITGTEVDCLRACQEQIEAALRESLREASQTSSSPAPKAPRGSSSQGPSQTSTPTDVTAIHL
T4 sequence (P50613 whole entry, species assumed): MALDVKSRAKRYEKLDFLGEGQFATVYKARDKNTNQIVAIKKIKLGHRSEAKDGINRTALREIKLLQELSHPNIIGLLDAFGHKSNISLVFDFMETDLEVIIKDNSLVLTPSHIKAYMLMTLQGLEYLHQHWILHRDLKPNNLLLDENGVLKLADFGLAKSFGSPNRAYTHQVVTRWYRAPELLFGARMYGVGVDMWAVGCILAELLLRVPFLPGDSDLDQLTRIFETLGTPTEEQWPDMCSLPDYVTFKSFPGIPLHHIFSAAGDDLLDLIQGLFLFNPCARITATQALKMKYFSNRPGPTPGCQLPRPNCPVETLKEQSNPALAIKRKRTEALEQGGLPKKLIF
T4 sequence (P51946 whole entry partner, species assumed): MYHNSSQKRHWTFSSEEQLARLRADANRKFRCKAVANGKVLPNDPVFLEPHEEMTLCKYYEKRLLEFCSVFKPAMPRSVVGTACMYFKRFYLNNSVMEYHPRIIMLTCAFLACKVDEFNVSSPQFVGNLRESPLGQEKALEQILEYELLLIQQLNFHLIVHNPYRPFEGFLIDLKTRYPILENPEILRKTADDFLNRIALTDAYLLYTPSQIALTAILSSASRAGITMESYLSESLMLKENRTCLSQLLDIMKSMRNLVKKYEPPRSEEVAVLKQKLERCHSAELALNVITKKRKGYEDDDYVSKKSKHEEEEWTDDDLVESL
T4 sequence (P51948 whole entry partner, species assumed): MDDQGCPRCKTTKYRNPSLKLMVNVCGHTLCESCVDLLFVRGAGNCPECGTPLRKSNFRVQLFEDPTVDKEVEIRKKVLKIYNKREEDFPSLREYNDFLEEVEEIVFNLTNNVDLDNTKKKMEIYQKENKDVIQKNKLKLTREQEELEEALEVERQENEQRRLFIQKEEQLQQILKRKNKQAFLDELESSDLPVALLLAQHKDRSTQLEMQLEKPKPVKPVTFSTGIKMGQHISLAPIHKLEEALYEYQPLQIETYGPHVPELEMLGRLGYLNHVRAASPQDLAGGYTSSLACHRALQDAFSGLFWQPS
T1 sequence (P05771 1-673 isoform P05771-2): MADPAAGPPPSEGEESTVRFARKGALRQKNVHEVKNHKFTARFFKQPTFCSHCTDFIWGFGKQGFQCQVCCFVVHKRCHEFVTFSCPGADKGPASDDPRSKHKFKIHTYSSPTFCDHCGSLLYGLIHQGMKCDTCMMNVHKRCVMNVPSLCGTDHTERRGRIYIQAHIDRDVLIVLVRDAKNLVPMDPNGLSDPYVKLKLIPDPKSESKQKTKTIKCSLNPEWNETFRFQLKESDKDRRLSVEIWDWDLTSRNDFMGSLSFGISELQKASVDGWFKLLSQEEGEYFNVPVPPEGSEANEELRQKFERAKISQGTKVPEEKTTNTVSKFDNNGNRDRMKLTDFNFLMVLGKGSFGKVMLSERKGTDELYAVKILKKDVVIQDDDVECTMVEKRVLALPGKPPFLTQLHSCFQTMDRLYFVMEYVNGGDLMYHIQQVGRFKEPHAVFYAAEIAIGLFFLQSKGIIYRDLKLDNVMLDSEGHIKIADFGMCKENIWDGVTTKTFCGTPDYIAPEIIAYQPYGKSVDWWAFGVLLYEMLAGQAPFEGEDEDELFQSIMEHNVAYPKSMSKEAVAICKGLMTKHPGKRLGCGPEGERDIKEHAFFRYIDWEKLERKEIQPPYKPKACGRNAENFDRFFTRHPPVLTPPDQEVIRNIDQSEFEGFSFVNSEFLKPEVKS
T7 sequence (P07947 whole entry, species assumed): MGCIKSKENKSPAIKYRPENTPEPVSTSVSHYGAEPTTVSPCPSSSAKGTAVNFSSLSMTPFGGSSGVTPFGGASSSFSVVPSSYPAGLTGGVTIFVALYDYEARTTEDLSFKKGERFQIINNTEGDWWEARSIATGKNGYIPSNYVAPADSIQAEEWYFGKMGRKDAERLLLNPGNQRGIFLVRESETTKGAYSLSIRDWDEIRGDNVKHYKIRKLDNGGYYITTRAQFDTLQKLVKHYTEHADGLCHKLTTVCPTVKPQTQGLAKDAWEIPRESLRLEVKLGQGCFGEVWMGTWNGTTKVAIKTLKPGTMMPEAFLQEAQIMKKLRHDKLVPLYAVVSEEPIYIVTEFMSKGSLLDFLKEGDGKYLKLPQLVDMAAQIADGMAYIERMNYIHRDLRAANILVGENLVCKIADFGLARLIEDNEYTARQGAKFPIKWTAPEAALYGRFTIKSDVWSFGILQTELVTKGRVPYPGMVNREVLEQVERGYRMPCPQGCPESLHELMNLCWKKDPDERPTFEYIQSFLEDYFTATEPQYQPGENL

SMILES: CC(=O)O[C@H]1C(=O)[C@@]2(C)[C@H]([C@H](OC(=O)c3ccccc3)[C@]3(O)C[C@H](OC(=O)[C@H](O)[C@@H](NC(=O)c4ccccc4)c4ccccc4)C(C)=C1C3(C)C)[C@]1(OC(C)=O)CO[C@@H]1C[C@@H]2O [paclitaxel, reference compound]
- tumor growth inhibited ([1]; 20 mg/kg IP twice weekly, ten day period): 63%
- % inhibition observed with benchmark cytotoxic agent (A549 NSCLC xenografts): 0%

SMILES: N.N.O=C([O-])C1(C(=O)[O-])CCC1.[Pt+2] [carboplatin, reference compound]
- % inhibition observed with benchmark cytotoxic agent (H82 (SCLC)): 40%

SMILES: CN1CC[C@H](c2c(O)cc(O)c3c(=O)cc(-c4ccccc4Cl)oc23)[C@H](O)C1 [Formula III, Flavopiridol, reference compound]
- remaining activity at 1 µM (PKCβII; at 1 μM): 75%
- remaining activity at 10 µM (PKCβII; at 10 μM): 26%
- % remaining activity (AMPK; at 1 μM): 67%
- % remaining activity (AMPK; at 10 μM): 20%
- MED ([1]; once per day IP for 7 days, dose inducing at least 50% inhibition of tumor growth): 10 mg/kg
- remaining activity at 1 µM (PKCε; at 1 μM): 45%
- remaining activity at 10 µM (PKCε; at 10 μM): 9%
- remaining activity at 1 µM (PKCθ; at 1 μM): 23%
- remaining activity at 10 µM (PKCθ; at 10 μM): 5%
- remaining activity at 1 µM (CDK7/cyclinH/MAT1; at 1 μM): 18%
- remaining activity at 10 µM (CDK7/cyclinH/MAT1; at 10 μM): 6%
- remaining activity at 1 µM (cSRC; at 1 μM): 3%
- remaining activity at 10 µM (cSRC; at 10 μM): 4%
- IC50 (A2780 cells [2]): 70 nM
- remaining activity at 1 µM (MSK1; at 1 μM): 74%
- remaining activity at 10 µM (MSK1; at 10 μM): 37%
- % remaining activity (CaMKII; at 1 μM): 44%
- % remaining activity (CaMKII; at 10 μM): 30%
- MTD at 7 days (in vivo): < 10 mg/kg
- remaining activity at 1 µM (YES; at 1 μM): 68%
- remaining activity at 10 µM (YES; at 10 μM): 40%
- remaining activity at 1 µM (Fes; at 1 μM): 44%
- remaining activity at 10 µM (Fes; at 10 μM): 13%
- remaining activity at 1 µM (CDK6/cyclinD3; at 1 μM): 25%
- remaining activity at 10 µM (CDK6/cyclinD3; at 10 μM): 6%
- remaining activity at 1 µM (Lyn; at 1 μM): 73%
- remaining activity at 10 µM (Lyn; at 10 μM): 18%
- remaining activity at 1 µM (Rsk2; at 1 μM): 65%
- remaining activity at 10 µM (Rsk2; at 10 μM): 18%
- remaining activity at 1 µM (PKCα; at 1 μM): 66%
- remaining activity at 10 µM (PKCα; at 10 μM): 20%
- concentration required to induce detectable effects on phospho-Ser 807/811 levels (A2780 cells [3]): about 1 micromolar
